Results taken from patent publication US6099857A, “Cell membrane fusion composition and method” (Washington University, priority 1998, dated 2000).

What was measured:
[1] = target: T1, GAPDH isoform (membrane fusion protein) (Oryctolagus cuniculus, UniProt P46406); assay: Protein-catalyzed membrane fusion of physiologically-modeled SUVs (R18, stopped flow); format: biochemical, rabbit; settings: for inhibition of membrane fusion activity: GAPDH isoform-catalyzed fusion of physiologically-modeled SUVs
T1 construct: from tissue; host or cells: rabbit brain (cytosol; DE-52 void volume, HiLoad SP Sepharose, GTP-agarose and Mono Q fractions)
T1 sequence (P46406 2-333 limits assumed): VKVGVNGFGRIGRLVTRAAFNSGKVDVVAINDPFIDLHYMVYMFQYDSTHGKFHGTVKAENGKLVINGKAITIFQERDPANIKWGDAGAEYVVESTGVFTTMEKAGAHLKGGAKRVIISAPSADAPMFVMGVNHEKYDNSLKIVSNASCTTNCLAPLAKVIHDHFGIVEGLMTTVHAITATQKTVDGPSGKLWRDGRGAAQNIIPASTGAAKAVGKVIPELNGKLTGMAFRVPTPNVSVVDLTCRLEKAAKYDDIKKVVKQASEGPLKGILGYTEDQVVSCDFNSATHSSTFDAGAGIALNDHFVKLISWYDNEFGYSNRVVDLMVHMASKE
Procedure: Rabbit brain cytosol was prepared and loaded onto a previously equilibrated DE-52 column. The column was developed with a linear NaCl gradient (0-400 Mm NaCl) and column eluents were assayed for their ability to catalyze membrane fusion utilizing physiologically-modeled small unilamellar vesicles (SUVs) as described in "Materials and Methods". Vesicles were comprised of 16:0-18:1 phosphatidylcholine (27%), 16:0-18:1 phosphatidylserine (6%), cholesterol (40%) and 27% of each of the following ethanolamine glycerophospholipids: 18:0-20:4 plasmenylethanolamine; 16:0-18:1 plasmenylethanolamine; 18:0-20:4 phosphatidylethanolamine; or 16:0-18:1 phosphatidylethanolamine . (----), uv absorbance at 280 nm; (----), NaCl gradient.
Physiologically-modeled SUVs were prepared (concentration=200 μM). The other chamber contained the Pi3 /NAD^+ eluent from GTP-agarose chromatography (0.004 mg/ml) which was previously incubated with (D)-glyceraldehyde 3-phosphate at the indicated concentrations for 30 seconds at 37° C. The rates of membrane fusion from four separate determinations of two preparations were averaged and expressed as a percentage of maximum fusion.
Physiologically-modeled small unilamellar vesicles consisting of 16:0-18:1 phosphatidylcholine (27%), ethanolamine glycerophospholipid (27%), 16:0-18:1 phosphatidylserine (6%) and cholesterol (40%) were prepared (final lipid concentration of 200 μM) and placed in one chamber of a stopped-flow apparatus. Aliquots of the HiLoad SP Sepharose column eluent (protein concentration=0.002 mg/ml) were placed in the other chamber, samples were rapidly mixed in a stopped flow apparatus and membrane fusion was quantified. Ethanolamine glycerophospholipids included 100% plasmenyl ethanolamine (A) 75% plasmenyl ethanolamine and 25% PE (B); 50% plasmenyl ethanolamine and 50% PE (C); and 25% plasmenyl ethanolamine and 75% PE (D;
Vesicles were composed of 16:0-18:1 PC/18:0-20:4 plasmenyl ethanolamine/cholesterol (27/27/40 mole percent) and varying mole percentages of phosphatidylserine (6% phosphatidylserine (A), 12% phosphatidylserine (B), 3% phosphatidylserine (C) or 0% phosphatidylserine (D)).
Physiologically-modeled SUVs containing phosphatidylcholine/18:0-20:4 plasmenylethanolamine/phosphatidylserine (45/45/10 mole ratio) and selected mole percentages of cholesterol (i.e., 40% cholesterol (A), 20% cholesterol (B), or 0% cholesterol (C)) were placed in one chamber of a stopped-flow apparatus. The other chamber contained aliquots of the active fraction from GTP-agarose chromatography (i.e., 20 mM tripolyphosphate/10 mM NAD^+ (Pi3 /NAD^+)), at a protein concentration of 0.004 mg/ml. Samples were rapidly mixed and membrane fusion was quantified. Results represent the average of six recordings from two independent preparations expressed as a percentage of maximal fusion.
The isolation of a GAPDH isoform that has been discovered to catalyze vesicle fusion, in accordance with the invention, is described in Example 5. Briefly, a […] homogenate was centrifuged at high speed to produce a cytosol. Dialyzed cytosol was fractionated on a DE-52 column, and the fractions were assayed in a vesicle fusion assay. The lipid vesicles that were used in the assay were composed of 27 mole percent of […], 6 mole percent PS, 40 mole percent cholesterol, and 27 mole percent […]. These vesicles show little measurable self-fusion activity, as evidenced by change in fluorescence in an R18 assay (half of the vesicles labeled with R18). […] The reasons underlying the cryptic nature of this activity in crude cytosol have been elaborated, showing that the cytosol contains a potent endogenous protein inhibitor of fusion activity. […]

GAPDH = target: T2, GAPDH (Oryctolagus cuniculus, UniProt P46406); assay: Glyceraldehyde 3-phosphate dehydrogenase activity (spectrophotometric, NADH); format: biochemical, rabbit
T2 construct: Column eluents were assayed for GAPDH activity and membrane fusion activity; from tissue; host or cells: rabbit brain (column eluents of the purification)
T2 sequence (P46406 2-333 limits assumed): as above
Procedure: The activity of GAPDH was measured spectrophotometrically utilizing modifications of the methods of Cori, .backslash.at al. (1948) and Steck, et al. (1973). Briefly, sample was added to a 1 cm path-length semi-micro cuvette containing 50 mM triethanolamine (pH 7-6), sodium arsenate (50 mM) (pH 8.8), 2.4 mM glutathione (reduced), 0.5 mM NAD, and water in a final volume of 990 .backslash.pl. After establishing a baseline (1 min), the reaction was initiated with 10 μl of 10 mM D-glyceraldehyde 3-phosphate (prepared according to Sigma product bulletin G-8007) and absorbance at 340 nm was measured for 5 minutes. Units of GAPDH activity represent the mass (μmol) of D-glyceraldehyde 3-phosphate converted per minute. The mass of NADH generated was calculated utilizing ε=[…].

[2] = Breakdown of lipids in vesicles during fusion studies (TLC, straight-phase HPLC, 3H label); format: physicochemical; settings: within the time frame of the assay
Text: To verify the differences in observed fusion rates were not due to selective breakdown of one subclass of ethanolamine glycerophospholipid, aliquots of lipid vesicles employed in the fusion studies were extracted by the method of Bligh and Dyer and analyzed by TLC and straight-phase HPLC. No lysophospholipids or other contaminants were detected within the time frame of the assay. For higher sensitivity detection, 16:0-18:1 plasmenyl ethanolamine was synthesized with a ^3 H label on the sn-2 oleoyl group. This label was added to a liposome preparation containing unlabeled PC and PE.

[3] = NBD-PE/Rh-PE lipid-mixing fusion assay with PS SUVs; settings: equal molar mixture with PC; NBD-PE dequenching
Procedure: In the NBD-PE/Rh-PE assay detailed in Example 2B, NBD-PE (N-(7-nitrobenz-2-oxa-1,3-diazol-4-yl)-1,2-dihexadecanoyl-sn-glycerol-3-phosphoethanolamine), and Rh-PE are incorporated into PS SUV's and the vesicles are mixed with test vesicles. Vesicle fusion is followed by the change in fluorescence emission at 530 nm, after […] at 464 nm.
This assay was performed by preparing phosphatidylserine SUVs containing 1.8% Rh-PE and 1.2% NBD-PE and adding an equimolar amount of unlabelled PC/PE vesicles pursuant to (Struck, et al. (1981); and Hoekstra, 1982). Fusion was monitored by NBD-PE fluorescence at 530 nm after excitation at 464 nm. The 100% fusion level was assessed by preparing lipid vesicles composed of 46.5% PS, 25% PC, 25% PE, 0.9% Rh-PE, and 0.6% NBD-PE and subsequently quantifying fluorescence intensity.
Since Rh-PE partially quenches NBD-PE fluorescence by resonance energy transfer at the initial concentrations used in these experiments, membrane fusion results in an increase in NBD-PE fluorescence as available membrane surface area increases.
To verify the results obtained with the R18 fusion assay, a second lipid-mixing assay utilizing NBD-PE and Rh-PE was used. […]

[4] = R18 assay of calcium-induced fusion of SUVs of ternary PS/PC/ethanolamine glycerophospholipid mixtures

CCN1C(=O)C=CC1=O [N-ethylmaleimide]
inhibition of membrane fusion-catalyzing activity ([1]; 1 mM for 60 minutes at 37° C., void volume activity): not inhibited

O=C[C@H](O)COP(=O)(O)O [D-glyceraldehyde 3-phosphate]
inhibition of membrane fusion activity [1]: inhibited

CC(C)[C@H]1CC[C@@]2(CO2)[C@H]2C(=O)OCC(C(=O)O)=C[C@H]12 [Koningic acid]
inhibition of GAPDH enzyme activity (GAPDH): maximally inhibited | inhibition of membrane fusion activity [1]: failed to inhibit

GAPDH isoform: 38 kDa isoform of glyceraldehyde-3-phosphate dehydrogenase purified from rabbit brain cytosol that catalyzes vesicle fusion
time for catalyzed fusion of one pair of vesicles (on average) ([1]; calculated, protein 4 μg/ml, assumes ≈1000 lipid molecules per vesicle and tetramer): 1 ms | selectivity of membrane fusion activity for vesicles containing plasmenylethanolamine compared with phosphatidylethanolamine ([1]; each stage of the purification procedure): highly selective

CCCCCCCC/C=C\CCCCCCCC(=O)O[C@H](CO/C=C\CCCCCCCCCCCCCC)COP(=O)(O)OCCN [16:0-18:1 plasmenyl ethanolamine]
breakdown of lipid during the fusion procedures [2]: No significant generation of radiolabeled fatty acid or lysophospholipid | rate of fusion to PS SUVs relative to PC/16:0-18:1 phosphatidylethanolamine vesicles [3]: three times more rapidly | initial rate of membrane fusion relative to vesicles with 16:0-18:1 phosphatidylethanolamine ([4]; 45% PC/45% PE/10% PS vesicles): significantly greater | fusogenicity relative to vesicles containing 16:0-18:1 phosphatidylethanolamine ([4]; POPS/POPC/ethanolamine glycerophospholipid (1:1:1) SUVs): six times more fusogenic

O=C(O)c1cc(SSc2ccc([N+](=O)[O-])c(C(=O)O)c2)ccc1[N+](=O)[O-] [DTNB]
inactivation of membrane fusion-catalyzing activity ([1]; 1 mM for 30 minutes at 37° C., void volume activity): inactivated
